Measurements as given in the METLIN SMRT retention time set (Domingo-Almenara et al. 2019).

Experiment: gradient 5% acetonitrile 3 min, to 50% in 2 min, to 85% in 15 min, held 3 min, 100 µL/min
Details: column: Zorbax Extend-C18 2.1 x 50 mm; eluents: water / acetonitrile, 0.1% formic acid
Method in brief: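 Retention times of pure standards were taken from adduct peaks that were selected by computer and manually inspected. Over 3 months, mixtures of ~100 molecules were run by HPLC–quadrupole time-of-flight mass spectrometry in positive and negative ionization mode. The Zorbax Extend-C18 column (2.1 × 50 mm, 1.8 μm) ran at 100 μL/min in water and acetonitrile, each containing 0.1% formic acid, with 40 μL dead volume and 900 μL dwell volume.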

RP-LC retention time [s] | SMILES
852 | Cc1nn2c(CNS(=O)(=O)c3cccc(F)c3)c(-c3ccccc3)nc2s1
584 | CCN1CCN(c2cc(C)c3cc(NC(=S)NCc4cccs4)ccc3n2)CC1
1020 | CCc1nn2c(CNS(=O)(=O)Cc3ccc(Cl)cc3)c(-c3ccccc3)nc2s1
922 | COc1ccccc1NC(=O)c1cnc2c(c1)c(=O)n(C)c(=O)n2-c1ccccc1
848 | O=C(NCC1CC1)c1cn(-c2cc(-c3nc(C4CC4)no3)ccn2)cn1
725 | COc1ccc(-c2nnc(-c3ccccc3)o2)cc1S(=O)(=O)Nc1cccnc1
951 | Fc1ccccc1-c1noc(-c2nc(-c3ccncc3)no2)n1
569 | CN(C)c1cccc(C(=O)NCC2(O)CCCC2)c1
757 | O=C(N[C@H]1C[C@@H]2C[C@H]1CN2C(=O)c1ccccc1Cl)c1ccccc1
633 | O=C(NCCC1=CCCCC1)C(=O)NCCN1CCN(c2ccc(F)cc2)CC1
919 | COc1ccc(-c2cc(-c3nc4c5sc6nc(C)cc(C)c6c5ncn4n3)[nH]n2)cc1OC
757 | O=C(NCC(O)Cc1ccccc1)c1cccc(Cl)c1 (stereo not drawn)
544 | O=C([C@@H]1C[C@H](Oc2cccnc2)CN1C(=O)c1ccc2ncccc2c1)N1CCCC1
808 | COC(=O)c1c(NCc2cc(F)cc(F)c2)c2cccc(Cl)c2[nH]c1=O
917 | CCC1Oc2ccc(S(=O)(=O)N3CCC(C(=O)N(C)C4CCCCC4)CC3)cc2NC1=O (stereo not drawn)
608 | CCN1CCN(C(=O)CN2C(=O)CSc3ccc(C(=O)N4CCCCC4)cc32)CC1
736 | CCn1cc(CN2CCC(C(=O)NCC3CCCCC3)CC2)c2cc(OC)ccc21
906 | O=C(Cn1c(=O)cc(-c2nc(C3CC3)no2)c2ccccc21)Nc1ccc2c(c1)OCCO2
655 | CCN1C(=O)c2cccnc2Sc2cc(NC(=O)COC)ccc21
788 | Cc1ccc(S(=O)(=O)N2CCC3(CC2)NCCN=C3NCc2ccccc2C)c(C)c1
916 | Cc1c(Cl)cccc1Nc1c(-c2ccc(N3CCOCC3)cc2)nc2cnccn12
1020 | C=CCn1c(=O)c2ccccc2n(Cc2nc(-c3cc(OC)cc(OC)c3)no2)c1=O

RP-LC retention time [s] | SMILES
748 | Cc1ccc(CCCN2CCCC(COc3ccccc3C(=O)N3CCCCC3)C2)o1 (stereo not drawn)
722 | Cc1noc(-c2nn(C)c3c2CN(C(=O)C2CCCC2)CC3)n1
935 | Cc1nnc(NC(=O)c2cn(Cc3cccc(F)c3)nc2OCc2cccc(F)c2)s1
544 | Cc1cnc(C2CN(Cc3ccc(F)cc3F)C2)n1Cc1cccnc1
975 | O=C(NCCc1csc(-c2cccs2)n1)C1CCN(S(=O)(=O)c2cccc(Cl)c2)CC1
955 | Cc1ccc(C)c(NC(=O)CN2C(=O)C3CCCCN3c3ccc(S(=O)(=O)N(C)C)cc32)c1 (stereo not drawn)
1150 | Cc1ccc(Sc2nccnc2N2CCCC(C(=O)NCc3ccccc3C)C2)cc1 (stereo not drawn)
722 | Cc1c(-c2noc(C(=O)NCCCN3CCCC(C)C3)n2)oc2ccccc12 (stereo not drawn)
879 | O=S(=O)(c1cccn2c(SCc3ccc(F)cc3Cl)nnc12)N1CCCCC1
855 | Cn1cnc2c(C(=O)NC3CCCCC3)nn(-c3ccccc3)c2c1=O
608 | CC(C)CN1CCn2cc(C(=O)NCc3ccc(F)cc3F)nc2C1
626 | COc1ccc2ncc(C#N)c(Nc3cc(OC)c(OC)c(OC)c3)c2c1
670 | COc1ccc(NC(=O)N(C)CC2CCOCC2)c(C)c1
1020 | CCCOC(=O)c1ccc(Nc2nc(C(=O)OCC)nc3ccccc23)cc1
677 | N#Cc1ccc(C(=O)N2CCCCC2c2nncn2CC2CC2)cc1 (stereo not drawn)
807 | CCS(=O)(=O)N1CC(=O)N(c2cc(C)ccc2C)C(C)(C(=O)NCc2ccccc2)C1 (stereo not drawn)
648 | CN(C)CCNC(=O)C1CCCN(c2ccc(Sc3ccc(Br)cc3)nn2)C1 (stereo not drawn)
858 | CCCN1C(=O)c2c(C(=O)NCc3cccc(Cl)c3)ncn2CC1(C)C(=O)NC1CCCC1 (stereo not drawn)
588 | Cc1cc(C)n(-c2ccnc(NCc3cccnc3)n2)n1
774 | O=C(CN1C(=O)CCS(=O)(=O)c2ccccc21)Nc1ccc(Br)cc1
655 | CC(=O)N(C1CCOCC1)C1CCN(C(=O)Nc2ccccc2)CC1
954 | Cc1c(Cl)cccc1NC(=O)c1cnc(-c2ccccc2)nc1-c1ccncc1

RP-LC retention time [s] | SMILES
766 | COCCN1C(=O)Cc2ccccc2C1C(=O)NCc1cccc(Cl)c1 (stereo not drawn)
698 | COc1ccc(Cl)cc1S(=O)(=O)NC1CCCN(c2ccc(=O)[nH]n2)C1 (stereo not drawn)
692 | O=C(NC(=O)c1ccccc1)OCCN1CCN(c2ncc(C(F)(F)F)cc2Cl)CC1
1140 | O=S(=O)(c1cccc(C(F)(F)F)c1)N1CCc2nc(-c3ccccc3)ncc2C1
748 | CCOc1ccc(C(=O)NC2CCN(c3cc(-c4ccccc4)[nH]n3)C2)cc1OCC (stereo not drawn)
756 | CCOc1ccccc1C(=O)NCC1CCN(C(=O)c2ccccc2F)CC1
1000 | CCN1C(=O)COc2ccc(-c3noc(Cc4cccc(OC)c4)n3)cc21
776 | COCCNC(=O)C1(C)Cn2nc(-c3ccco3)cc2C(=O)N1c1ccc(OC)c(Cl)c1 (stereo not drawn)
683 | CC(=O)c1ccc(NC(=O)C2Oc3ccccc3NC2=O)cc1 (stereo not drawn)
830 | CCOc1ccccc1NC(=O)C1CCN(S(C)(=O)=O)c2cc(C)ccc2O1 (stereo not drawn)
636 | Clc1cccc(-c2noc(Cn3ccnc3)n2)c1
954 | Cc1nc(-n2c(C)ccc2C)sc1C(=O)NC(C)C
850 | CCOc1ccccc1NC(=O)Cn1nc(C2CC2)cc1C(=O)N1CCCC1
923 | Cc1ccc(C)c(NC(=O)C2CCCN(S(=O)(=O)c3c[nH]c(C(=O)N4CCCCCC4)c3)C2)c1 (stereo not drawn)
573 | Cc1ccc2c(Nc3cccc(C(F)(F)F)c3)c(C(=O)N3CCOCC3)cnc2n1
777 | COC(=O)c1cccc(Nc2ncccc2S(N)(=O)=O)c1
1320 | Cc1ccc(S(=O)(=O)c2cnc(N3CCN(c4cc(Cl)ccc4C)CC3)nc2N)cc1
853 | CNC(=O)c1cn(CC(C)C)c(=O)c2ccccc12
766 | CC(C)CC(=O)N1CCC2(CC1)C(=O)N(C)c1ccccc12
835 | CC(=O)N1CCc2ccccc2C1C(=O)NCc1ccc(Br)cc1 (stereo not drawn)
993 | Cc1cccc(CNS(=O)(=O)c2cn(CC(C)C)c3ncccc23)c1
860 | Cc1c(Cl)cccc1NC(=O)C(C)C1CCN(C(=O)Nc2ccccc2)CC1 (stereo not drawn)

RP-LC retention time [s] | SMILES
1090 | CCCn1nnc(NCc2ccc(-c3cccc(Cl)c3)o2)n1
604 | Cc1scc2nc(C3CCC3)nc(N3CCC(C(=O)NCc4ccc(N(C)C)cc4)CC3)c12
904 | Cc1cccc(NC(=O)c2cnc3c(c2)c(=O)n(C)c(=O)n3-c2ccc(F)cc2)c1
805 | O=C([C@@H]1C[C@H](F)CN1S(=O)(=O)c1cccc(F)c1)N1CCCCC1
1100 | Cc1nc2cc(-c3noc(-c4ccc(F)c(F)c4)n3)ccc2o1
962 | Cc1ccccc1-c1cn2ccn(-c3ccc4c(c3)CCC4)c(=O)c2n1
767 | Cc1ccc(NC(=O)N2CCCC2c2nncn2-c2ccccc2)cc1C (stereo not drawn)
654 | O=C(Nc1cccc(F)c1)c1nnc(CSCC(=O)N2CCN(c3ccccn3)CC2)s1
1240 | CC(C)c1ccc(-n2ccnc(NC(=O)Nc3cccc(Cl)c3)c2=O)cc1
1070 | Cn1cc(-c2nc(C(=O)N3CCN(c4ccccc4Cl)CC3)cs2)c2cccnc21
657 | COc1cccc(NC(=O)N2CCN(c3cc(C)nc(N4CCCC4)n3)CC2)c1
1100 | CCOC(=O)c1c(C)oc2ncnc(N3CCC(c4ccccc4)C3)c12 (stereo not drawn)
792 | COc1ccc(-c2c(C)noc2NC(C)=O)cc1S(=O)(=O)Nc1cc(Cl)ccc1C
587 | O=C1COc2cc(S(=O)(=O)N3CCCC3C(=O)NCCN3CCCCCC3)c(Cl)cc2N1 (stereo not drawn)
810 | Cc1ccccc1CC(=O)NC1CCN(c2ccc(F)cc2)C1=O (stereo not drawn)
572 | O=C(c1ccc(Cl)s1)N1CCN(CC(O)c2cccs2)CC1 (stereo not drawn)
638 | Cc1cc(C(=O)Nc2cccc(-c3ccc(N4CCOCC4)nn3)c2)c(C)o1
977 | Cc1cc(S(=O)(=O)N2CCC(N(C(=O)C3CC3)C3CCOCC3)CC2)ccc1Cl
895 | COc1ccccc1-c1nnc(-c2ccc(C)c(S(=O)(=O)N(C)C)c2)o1
999 | Cc1nc2cc(-c3noc(C(C)NC(=O)c4ccccc4)n3)ccc2n(C2CCCC2)c1=O (stereo not drawn)
795 | Cc1ccc(NC(=O)N2C[C@H](c3nc(-c4ccncc4)no3)[C@@H](C)C2)cc1

SMILES | RP-LC retention time [s]
COc1ccc2c(c1)C1(CCN(C(=O)c3ccc(C#N)cc3)C1)C(=O)N2C (stereo not drawn) | 735
